From article PMC11275008, “Anti-Inflammatory and Cancer-Preventive Potential of Chamomile (Matricaria chamomilla L.): A Comprehensive In Silico and In Vitro Study” (Biomedicines, 2024) come the findings set out here.

This assay concerns the target T1, NF-κB (recombinant human NF-κB; docking used NF-κB p65-RelA) (Homo sapiens, UniProt Q04206).
T1 construct: commercial recombinant protein (Sino Biological); labelled with RED-NHS 2nd generation dye on lysines
The assay can be described thus: microscale thermophoresis. The class given is binding. (In general: In MST a laser heats a spot of the sample, and binding alters the fluorescence response.)

T1 sequence (Q04206 whole entry): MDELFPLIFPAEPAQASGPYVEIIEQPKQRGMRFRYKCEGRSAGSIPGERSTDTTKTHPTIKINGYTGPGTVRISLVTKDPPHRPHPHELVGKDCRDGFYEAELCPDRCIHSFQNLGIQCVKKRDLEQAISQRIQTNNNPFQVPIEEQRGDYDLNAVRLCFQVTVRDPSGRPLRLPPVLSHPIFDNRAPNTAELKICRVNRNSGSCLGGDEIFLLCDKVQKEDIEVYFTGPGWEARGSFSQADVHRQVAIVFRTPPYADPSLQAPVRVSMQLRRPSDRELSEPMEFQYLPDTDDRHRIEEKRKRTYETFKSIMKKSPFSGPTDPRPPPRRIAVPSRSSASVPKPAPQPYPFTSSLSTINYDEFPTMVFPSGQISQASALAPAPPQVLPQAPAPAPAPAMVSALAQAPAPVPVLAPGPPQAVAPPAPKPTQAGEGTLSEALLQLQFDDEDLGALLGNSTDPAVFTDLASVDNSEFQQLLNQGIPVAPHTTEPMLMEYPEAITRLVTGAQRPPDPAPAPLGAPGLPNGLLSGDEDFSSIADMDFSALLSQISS

Usually Kd stands for a measure of binding affinity in units of concentration. As to `CC1(C)CC[C@]2(C)CC[C@]3(C)C(=CC[C@@H]4[C@@]5(C)CC[C@H](O)C(C)(C)[C@@H]5CC[C@]43C)[C@@H]2C1` [β-amyrin], the Kd turned out to be 943 ± 113 nM.
